# Patent publication US20080306146A1, “Dosing Regimens for Cox-2 Inhibitor” (AMOREPACIFIC CORPORATION, priority 2005, published 2008)
# What was measured:
# [1] = plasma pharmacokinetics in healthy male subjects, single oral dose of capsule drug product
# [2] = clinical; conditions: male, human, plasma, po
# [3] = system: carrageenan-induced thermal hyperalgesia in male SD rats; conditions: orally administered; cited from earlier work
# [4] = plasma pharmacokinetics in healthy male subjects, multiple dose (loading plus daily maintenance dose, 8 days); assay type: in vivo, human
# Source text: By assuming an elimination half-life of 4 to 5 days for Compound A, were designed multiple dosing regimens by which steady state plasma concentrations of Compound A are rapidly reached and maintained throughout the dosing period. […] Although only two examples of dosing regimens involving a combination of loading dose and daily maintenance dose are provided in Table 3, it is not intended to limit the dosing regimens of this invention only to those provided in Table 3. Obviously, variations in the loading dose and consequent the daily maintenance dose levels may be conceived depending on indications of subjects. For example a loading dose of 2 mg may be used in combination with a daily maintenance dose of about 0.25 mg/day.
# The dosing regimens of the instant invention were tested in healthy human male subjects. Table 4 provides mean pre-dose plasma levels of Compound A following oral administrations of capsule drug products containing Compound A according to either Regimen A or Regimen B of Table 3 daily once for 8 days. In both dosing regimens, the pre-dose plasma levels remained almost constant.
# [5] = system: adjuvant-induced arthritis in male Lewis rats; conditions: cited from earlier work
smiles,measurement,setting,value
"CC1(C)OC(c2ccc(S(N)(=O)=O)cc2)=C(c2cccc(F)c2)C1=O [Compound A, 5-{4-(aminosulfonyl)phenyl}-2,2-dimethyl-4-(3-fluorophenyl)-3(2H)furanone]",Terminal Elimination Half-life,[1]; single oral dose 5 mg (Group 2),118 ± 66 h
same,Terminal Elimination Half-life,[1]; single oral dose 8 mg (Group 3),77 ± 8 h
same,Terminal Elimination Half-life,[1]; single oral dose 12 mg (Group 4),135 ± 24 h
same,dose dependence of Cmax,[1]; single oral dose 1 to 12 mg,increased essentially dose proportionally
same,half-life,[2],77 to 135 h
same,Cmax,[2]; 1 mg,1.65 ng/mL
same,Cmax,[2]; 5 mg,7.82 ng/mL
same,Cmax,[2]; 8 mg,13.3 ng/mL
same,Cmax,[2]; 12 mg,18.1 ng/mL
same,ED50 in carrageenan-induced thermal hyperalgesia,[3],0.25 mg/kg
same,Mean Pre-dose Plasma Level,"[4]; Regimen A (3 mg loading, 0.4 mg/day maintenance), Day 2",3.8 ng/mL
same,drug accumulation from the multiple dosings,"[4]; Regimen A and Regimen B, daily once for 8 days",no suggestions of drug accumulation
same,Mean Pre-dose Plasma Level,"[4]; Regimen A, Day 1 (before loading dose)",0 ng/mL
same,Mean Pre-dose Plasma Level,"[4]; Regimen A, Day 3",4.2 ng/mL
same,Mean Pre-dose Plasma Level,"[4]; Regimen A, Day 4",4.0 ng/mL
same,Mean Pre-dose Plasma Level,"[4]; Regimen A, Day 5",4.7 ng/mL
same,Mean Pre-dose Plasma Level,"[4]; Regimen A, Day 6",4.5 ng/mL
same,Mean Pre-dose Plasma Level,"[4]; Regimen A, Day 7",3.6 ng/mL
same,Mean Pre-dose Plasma Level,"[4]; Regimen A, Day 8",3.6 ng/mL
same,Mean Pre-dose Plasma Level,"[4]; Regimen A, Day 9 (no dose)",4.0 ng/mL
same,Mean Pre-dose Plasma Level,"[4]; Regimen B (6 mg loading, 0.8 mg/day maintenance), Day 2",6.2 ng/mL
same,Mean Pre-dose Plasma Level,"[4]; Regimen B, Day 1 (before loading dose)",0 ng/mL
same,Mean Pre-dose Plasma Level,"[4]; Regimen B, Day 3",6.2 ng/mL
same,Mean Pre-dose Plasma Level,"[4]; Regimen B, Day 4",6.3 ng/mL
same,Mean Pre-dose Plasma Level,"[4]; Regimen B, Day 5",6.5 ng/mL
same,Mean Pre-dose Plasma Level,"[4]; Regimen B, Day 6",6.3 ng/mL
same,Mean Pre-dose Plasma Level,"[4]; Regimen B, Day 7",6.6 ng/mL
same,Mean Pre-dose Plasma Level,"[4]; Regimen B, Day 8",7.1 ng/mL
same,Mean Pre-dose Plasma Level,"[4]; Regimen B, Day 9 (no dose)",6.6 ng/mL
same,half-life,"[4]; male, human, plasma, oral, Regimen A and Regimen B, after 8 days of daily once dosing, read-out: mean elimination half-lives following the last dosing",96 to 120 h
same,ED50 by adjuvant-induced arthritis,[5],0.1 mg/kg/day
"COc1ccc2c(c1)c(CC(=O)O)c(C)n2C(=O)c1ccc(Cl)cc1 [indomethacin, reference compound]",ED50 in carrageenan-induced thermal hyperalgesia,[3],~1.0 mg/kg
same,ED50 by adjuvant-induced arthritis,[5],0.3 mg/kg/day
